Article PMC12518634, “The noncanonical function of liver-type phosphofructokinase potentiates the efficacy of HDAC inhibitors in cancer” (Signal Transduction and Targeted Therapy, 2025)

Tests used:
TFK1 cells [1] = experiment: Cell viability assay (CellTiter-Glo, 72 h), GI50; assay type: cell-based, human; details: Homo sapiens
Description: (§1) Cell viability was assessed using the CellTiter-Glo luminescent cell viability assay (Vazyme, DD1101) following the manufacturer’s instructions. Briefly, 5000 cells per well were seeded into a 96-well white bottom permeable plate. Different concentrations of drugs were added to each well. After 72 h of treatment, a mixture of CellTier reagent and serum-free culture medium was prepared at a 1:1 ratio, and 100 μL of the mixture was added to each well. After incubation at 37 °C for 15 min, the luminescence was measured using a microplate reader (Synergy H1, Biotek). All the experiments were conducted in triplicate. Cell viability (relative luminescence) was defined as the luminescence of the drug treatment relative to that of the vehicle control.

BT-549 cells = experiment: Cell viability assay (CellTiter-Glo, 72 h), GI50; assay type: cell-based; details: Homo sapiens, BT-549, 72 h
Description: as §1

RMG-I cells = experiment: Cell viability assay (CellTiter-Glo, 72 h), GI50; assay type: cell-based; details: Homo sapiens
Description: as §1

MCF7 cells = experiment: Cell viability assay (CellTiter-Glo, 72 h), GI50; assay type: cell-based; details: Homo sapiens, Fig. 6a
Description: as §1

A549 cells = experiment: Cell viability assay (CellTiter-Glo, 72 h), GI50; assay type: cell-based; details: Homo sapiens, A549, 72 h
Description: as §1

NCI-H596 cells = experiment: Cell viability assay (CellTiter-Glo, 72 h), GI50; assay type: cell-based; details: Homo sapiens, Fig. 6a
Description: as §1

TOV21G cells = experiment: Cell viability assay (CellTiter-Glo, 72 h), GI50; assay type: cell-based; details: Homo sapiens, Fig. 6a
Description: as §1

[2] = system: H3K9ac and H3K27ac in TFK1 cells; experiment: Immunoblot of H3K9ac and H3K27ac; assay type: cell-based, human; details: prolonged romidepsin treatment, n = 3 biological replicates, Fig. 3f
Description: For immunoblotting, cells were washed with ice-cold PBS and lysed in RIPA lysis buffer (supplemented with protease inhibitor and phosphatase inhibitor cocktails Ⅱ and Ⅲ) for 15 min at 4 °C. The protein concentrations of the samples were normalized using a BCA protein assay kit (Thermo). Immunoblots were performed with specific primary antibodies, followed by the addition of a fluorescein-conjugated secondary antibody, after which the proteins were detected via an Odyssey fluorescence scanner (LI-COR).

TFK1 cells [3] = details: PFKL-knockout (sgPFKL) TFK1 cells and PFKL-overexpressing (ovPFKL) HuCCT1 cells; LC-MS/MS of cell lysates; n=3 biological replicates; Supplementary Fig. 5f
[4] = romidepsin combined with NS or peptide, Fig. 6c

Cc1[nH]c2ccccc2c1CCNCc1ccc(/C=C/C(=O)NO)cc1 [Panobinostat, panobinostat]
GI50 (TFK1 cells [1]; TFK1, CellTiter-Glo, Fig. 1b): 62.7 nM | GI50 (TFK1 cells [1]; TFK1 after interference with LHCGR si-1, Fig. 1f): 31 nM | GI50 (TFK1 cells [1]; TFK1 after interference with LHCGR si-2, Fig. 1f): 28.3 nM | GI50 (TFK1 cells [1]; TFK1 after interference with NFIA si-1, Fig. 1f): 42.7 nM | GI50 (TFK1 cells [1]; TFK1 after interference with NFIA si-2, Fig. 1f): 46.6 nM | GI50 (TFK1 cells [1]; TFK1 after interference with PFKFB1 si-1, Fig. 1f): 45.1 nM | GI50 (TFK1 cells [1]; TFK1 after interference with PFKFB1 si-2, Fig. 1f): 60.6 nM | GI50 (TFK1 cells [1]; TFK1 after interference with PFKL si-1, Fig. 1f): 605 nM | GI50 (TFK1 cells [1]; TFK1 after interference with PFKL si-2, Fig. 1f): 402 nM | GI50 (TFK1 cells [1]; TFK1 expressing sgNC, Fig. 1g): 53.9 nM | GI50 (TFK1 cells [1]; TFK1 expressing sgPFKL-1, Fig. 1g): 964 nM | GI50 (TFK1 cells [1]; TFK1 expressing sgPFKL-2, Fig. 1g): 644 nM | GI50 (TFK1 cells [1]; TFK1 siNC, Fig. 1f): 40.1 nM

C/C=C1\NC(=O)[C@H]2CSSCC/C=C/[C@H](CC(=O)N[C@H](C(C)C)C(=O)N2)OC(=O)[C@H](C(C)C)NC1=O [Romidepsin, romidepsin]
GI50 (BT-549 cells; BT549, romidepsin combined with NS or peptide, Fig. 6c): 16.2 nM | GI50 (BT-549 cells; BT-549, Fig. 6a): 13.7 nM | GI50 (RMG-I cells; Fig. 6a): 5.71 nM | GI50 (RMG-I cells; [4]): 9.48 nM | GI50 (MCF7 cells): 0.56 nM | GI50 (A549 cells; Fig. 6a): 5.87 nM | GI50 (A549 cells; [4]): 7.62 nM | GI50 (NCI-H596 cells): 0.12 nM | GI50 (TOV21G cells): 0.36 nM | acetylation at the H3K9 and K27 histone sites [2]: gradual increase in acetylation | cellular uptake of romidepsin with differential expression of PFKL (TFK1 cells [3]): did not affect the cellular uptake
